Data published in patent US4248887A, “Antibacterial compounds, processes for their preparation and compositions containing them” (priority 1978, dated 1981).
Converted amounts (≈) assume the structure as drawn. Where two headings read alike, the source gives them in different places.

Tests used:
[1] = system: M. dispar NCTC 10125; experiment: Anti-mycoplasma MIC; format: cell-based
[2] = system: M. pneumoniae 427a; experiment: Anti-mycoplasma MIC; format: cell-based; conditions: Mycoplasmoides pneumoniae
[3] = system: M. pulmonis JB; experiment: Anti-mycoplasma MIC; format: cell-based; conditions: Mycoplasmopsis pulmonis
[4] = system: M. synoviae ATCC 25204; experiment: Anti-mycoplasma MIC; format: cell-based; conditions: Mycoplasmopsis synoviae, ATCC25204
[5] = system: Past. multocida 1633; experiment: MIC by serial dilution in nutrient agar (human bacteria); conditions: Pasteurella multocida
[6] = system: M. hyosynoviae ATCC 25591; experiment: Anti-mycoplasma MIC; format: cell-based
[7] = system: Strep. pyogenes C 2761; experiment: MIC by serial dilution in nutrient agar (human bacteria); conditions: Streptococcus pyogenes, C2761
[8] = system: M. hyorhinis ATCC 23234; experiment: Anti-mycoplasma MIC; format: cell-based; conditions: Mesomycoplasma hyorhinis, ATCC23234
[9] = system: Strep. pyogenes A 64/848; experiment: MIC by serial dilution in nutrient agar (human bacteria); conditions: Streptococcus pyogenes, A64/848
[10] = system: Staph. aureus Oxford; experiment: as above; conditions: Staphylococcus aureus
[11] = system: M. fermentans MWKL4; experiment: Anti-mycoplasma MIC; format: cell-based; conditions: Mycoplasmopsis fermentans
[12] = system: M. bovis NCTC 10131; experiment: microbe, parasite or virus in culture; format: cell-based; conditions: NCTC10131
[13] = system: Staph. aureus 1517; experiment: MIC by serial dilution in nutrient agar (human bacteria); format: cell-based; conditions: Staphylococcus aureus
[14] = system: M. gallisepticum S6; experiment: Anti-mycoplasma MIC; format: cell-based; conditions: Mycoplasmoides gallisepticum
[15] = system: H. influenzae Q1; experiment: MIC by serial dilution in nutrient agar (human bacteria); conditions: Haemophilus influenzae
[16] = system: N. catarrhalis 1502; experiment: as above; conditions: Neisseria
[17] = system: M. bovigenitalium ATCC 14173; experiment: Anti-mycoplasma MIC; format: cell-based
[18] = system: Strep. pyogenes B 2788; experiment: MIC by serial dilution in nutrient agar (human bacteria); conditions: Streptococcus pyogenes, B2788
[19] = system: Staph. aureus Russell; experiment: as above; conditions: Staphylococcus aureus
[20] = system: B. subtilis; experiment: as above; conditions: Bacillus subtilis
[21] = system: M. arthritidis ATCC 14124; experiment: Anti-mycoplasma MIC; format: cell-based
[22] = system: M. alkalescens NCTC 10135; experiment: Anti-mycoplasma MIC; format: cell-based
[23] = system: M. suipneumoniae J2206/183b; experiment: Anti-mycoplasma MIC; format: cell-based; conditions: Mesomycoplasma hyopneumoniae, J2206/183B
[24] = system: H. influenzae Wy21; experiment: MIC by serial dilution in nutrient agar (human bacteria); conditions: Haemophilus influenzae
[25] = system: M. dispar H225; experiment: Anti-mycoplasma MIC; format: cell-based
[26] = system: M. pneumoniae ATCC 15492; experiment: Anti-mycoplasma MIC; format: cell-based; conditions: Mycoplasmoides pneumoniae, ATCC15492, M. pneumoniae ATCC 15492
[27] = system: M. bovis ATCC 25025; experiment: microbe, parasite or virus in culture; format: cell-based; conditions: ATCC25025
[28] = system: Strep. pneumoniae CN33; experiment: MIC by serial dilution in nutrient agar (human bacteria); conditions: Streptococcus pneumoniae
[29] = system: M. suipneumoniae Str. 11; experiment: Anti-mycoplasma MIC; format: cell-based; conditions: Mesomycoplasma hyopneumoniae, STR.11
[30] = system: Bord. bronchiseptica BO8; experiment: MIC against veterinary bacteria; conditions: Bordetella bronchiseptica
[31] = system: Past. multocida PA2; experiment: MIC against veterinary bacteria; conditions: Pasteurella multocida
[32] = system: Strep. agalactiae SPA1; experiment: MIC against veterinary bacteria; conditions: Streptococcus agalactiae
[33] = system: Strep. dysgalactiae SPD1; experiment: MIC against veterinary bacteria; conditions: Streptococcus dysgalactiae
[34] = system: Past. haemolytica PA5; experiment: MIC against veterinary bacteria; conditions: Mannheimia haemolytica
[35] = system: Bord. bronchiseptica BO9; experiment: MIC against veterinary bacteria; conditions: Bordetella bronchiseptica
[36] = system: Staph. aureus B4 (pen resistant); experiment: MIC against veterinary bacteria; conditions: Staphylococcus aureus
[37] = system: Staph. aureus 152 (pen sensitive); experiment: MIC against veterinary bacteria; conditions: Staphylococcus aureus
[38] = system: Past. multocida PA1; experiment: MIC against veterinary bacteria; conditions: Pasteurella multocida
[39] = system: Strep. uberis SPU1; experiment: MIC against veterinary bacteria; conditions: Streptococcus uberis
[40] = Agar (serial dilution in Friis' agar)
[41] = Broth (Friis' broth, microtiter method)
[42] = Agar (serial dilution in Friis' agar), read-out: MIC
[43] = Broth (Friis' broth, microtiter method), read-out: MIC

Work on `COC(=O)/C=C(\C)CC1OCC(C/C=C/C(C)C(C)O)C(O)C1O` (stereo not drawn) [Methyl, Methyl Monate C] yielded an MIC [1] of 0.312 µg/mL (≈ 0.911 µM), an MIC [2, 40] of over 10 µg/mL and an MIC [2, 41] of over 10 µg/mL. It also gave an MIC [3, 40] of 0.312 µg/mL (≈ 0.911 µM), an MIC [3, 41] of 0.156 µg/mL (≈ 0.456 µM) and an MIC [4] of 0.156 µg/mL (≈ 0.456 µM). The MIC [5] was 10 µg/mL (≈ 29.2 µM), the MIC [6] was 5 µg/mL (≈ 14.6 µM) and the MIC [7] was over 100 µg/mL. For the same compound, the MIC [8] was 1.25 µg/mL (≈ 3.65 µM), the MIC [9] was over 100 µg/mL and the MIC [10] was 1 µg/mL (≈ 2.92 µM). The MIC [11, 40] was 0.625 µg/mL (≈ 1.83 µM), the MIC [11, 41] was 0.312 µg/mL (≈ 0.911 µM) and the MIC [12] was 0.312 µg/mL (≈ 0.911 µM). It also gave an MIC [13] of 2.5 µg/mL (≈ 7.3 µM), an MIC ([14]; S6) of over 10 µg/mL and an MIC [15] of 1 µg/mL (≈ 2.92 µM). For the same compound, the MIC [16] was 1 µg/mL (≈ 2.92 µM), the MIC [17] was 0.156 µg/mL (≈ 0.456 µM) and the MIC [18] was 25 µg/mL (≈ 73 µM). For the same compound, the MIC [19] was 2.5 µg/mL (≈ 7.3 µM), the MIC [20] was 2.5 µg/mL (≈ 7.3 µM) and the MIC [21] was over 10 µg/mL. It also gave an MIC [22] of 0.156 µg/mL (≈ 0.456 µM), an MIC [23] of 2.5 µg/mL (≈ 7.3 µM) and an MIC [24] of 2.5 µg/mL (≈ 7.3 µM). For the same compound, the MIC [25] was 0.625 µg/mL (≈ 1.83 µM), the MIC [26, 40] was over 10 µg/mL and the MIC [26, 41] was 10 µg/mL (≈ 29.2 µM). It also gave an MIC [27] of 0.312 µg/mL (≈ 0.911 µM), an MIC [28] of 25 µg/mL (≈ 73 µM) and an MIC [29] of 2.5 µg/mL (≈ 7.3 µM).

`C/C(=C\C(=O)OCC(C)C)CC1OCC(C/C=C/C(C)C(C)O)C(O)C1O` (stereo not drawn) [Isobutyl, Isobutyl Monate C] gave an MIC ([1]; M. dispar NCTC 10125, Broth (Friis' broth, microtiter method), read-out: MIC) of 0.312 µg/mL (≈ 0.811 µM), an MIC [30] of over 80 µg/mL and an MIC [31] of 10 µg/mL (≈ 26 µM). It also gave an MIC [32] of 10 µg/mL (≈ 26 µM), an MIC [2, 42] of 10 µg/mL (≈ 26 µM) and an MIC [2, 43] of 1.25 µg/mL (≈ 3.25 µM). It also gave an MIC [33] of 5 µg/mL (≈ 13 µM), an MIC [34] of 80 µg/mL (≈ 208 µM) and an MIC [3, 42] of 0.078 µg/mL (≈ 0.203 µM). The MIC [3, 43] was under 0.02 µg/mL, the MIC ([4]; M. synoviae ATCC 25204, Agar (serial dilution in Friis' agar), read-out: MIC) was 0.078 µg/mL (≈ 0.203 µM) and the MIC [5] was 5 µg/mL (≈ 13 µM). The MIC [35] was 40 µg/mL (≈ 104 µM), the MIC ([6]; M. hyosynoviae ATCC 25591, Agar (serial dilution in Friis' agar), read-out: MIC) was 0.625 µg/mL (≈ 1.63 µM) and the MIC [7] was 25 µg/mL (≈ 65 µM). For the same compound, the MIC ([8]; M. hyorhinis ATCC 23234, Agar (serial dilution in Friis' agar), read-out: MIC) was 2.5 µg/mL (≈ 6.5 µM), the MIC [9] was 10 µg/mL (≈ 26 µM) and the MIC [10] was 0.5 µg/mL (≈ 1.3 µM). The MIC [11, 42] was 0.312 µg/mL (≈ 0.811 µM), the MIC [11, 43] was 0.039 µg/mL (≈ 0.101 µM) and the MIC [12] was 0.156 µg/mL (≈ 0.406 µM). For the same compound, the MIC [36] was 1.25 µg/mL (≈ 3.25 µM), the MIC ([14]; M. gallisepticum S6, Agar (serial dilution in Friis' agar), read-out: MIC) was over 10 µg/mL and the MIC [15] was 1 µg/mL (≈ 2.6 µM). It also gave an MIC [16] of 1 µg/mL (≈ 2.6 µM), an MIC ([17]; M. bovigenitalium ATCC 14173, Agar (serial dilution in Friis' agar), read-out: MIC) of 0.078 µg/mL (≈ 0.203 µM) and an MIC [18] of 25 µg/mL (≈ 65 µM). For the same compound, the MIC [19] was 1 µg/mL (≈ 2.6 µM), the MIC [20] was 1 µg/mL (≈ 2.6 µM) and the MIC [37] was 1.25 µg/mL (≈ 3.25 µM). The MIC ([21]; M. arthritidis ATCC 14124, Agar (serial dilution in Friis' agar), read-out: MIC) was 5 µg/mL (≈ 13 µM), the MIC [38] was 10 µg/mL (≈ 26 µM) and the MIC [22] was 0.156 µg/mL (≈ 0.406 µM). For the same compound, the MIC [23] was 1.25 µg/mL (≈ 3.25 µM), the MIC [24] was 1 µg/mL (≈ 2.6 µM) and the MIC [39] was 1.25 µg/mL (≈ 3.25 µM). It also gave an MIC ([25]; M. dispar H225, Broth (Friis' broth, microtiter method), read-out: MIC) of 0.312 µg/mL (≈ 0.811 µM), an MIC [26, 42] of 10 µg/mL (≈ 26 µM) and an MIC [26, 43] of 2.5 µg/mL (≈ 6.5 µM). The MIC [27] was 0.156 µg/mL (≈ 0.406 µM), the MIC [28] was 5 µg/mL (≈ 13 µM) and the MIC [29] was 1.25 µg/mL (≈ 3.25 µM).
